Data as given in patent US20130316990A1, “USE OF VITAMIN D COMPOUNDS” (DSM IP ASSETS B.V., priority 2003, published 2013).
Marks after values point to notes of the source that are not given here.

Columns and labels:
[1] = system: growing-fattening pigs; assay: Bone strength (Newton at the breaking point) in growing-fattening pigs fed supplemented diet, Example 1; format: in vivo; settings: for Strength - metacarpals and metatarsals, relative to group A (100) / Strength - metacarpals, relative to group A (100) / Strength - metatarsals, relative to group A (100): unmedicated basal diet = 100; for Strength - metacarpals / Strength - metatarsals: mean ± SD of 8 determinations; for Strength - metacarpals and metatarsals: mean ± SD of 16 determinations
Method: Growing-fattening pigs of an initial body weight of 64.8±5.03 kg were fed a diet based on maize, barley and soybean meal ad libitum for 34 days. Groups of 16 animals each were fed as follows:
A: basal diet (unmedicated),
B: basal diet+1,200 IU/kg vitamin D3
C: basal diet+30 μg/kg 25-hydroxy vitamin D3 (Hy.D® 1.25% Beadlet, Roche Vitamins AG, Basel, Switzerland)
D: basal diet+600 IU/kg vitamin D3+15 μg/kg 25-hydroxy vitamin D3 (Hy.D® 1.25% Beadlet, Roche Vitamins AG, Basel, Switzerland).
(§1) The effects of the addition of 25-hydroxy vitamin D3 and vitamin D3 to the diet were determined by measuring the strength (Newton at the breaking point) of the bones of the animals.

[2] = system: weaner piglets; assay: Bone strength (Newton at the breaking point) in weaner piglets fed supplemented diet, Example 2; format: in vivo; settings: for Strength - femur: mean ± SD of 8 determinations
Method: Weaner piglets of an initial body weight of 8.4±1.2 kg were fed a diet based on maize, barley and soybean meal ad libitum for 33 days. Groups of 31 animals each were fed as follows:
A: basal diet+1,000 IU/kg vitamin D3
B: basal diet+2,000 IU/kg vitamin D3
C: basal diet +40 μg/kg 25-hydroxy vitamin D3 (Hy.D® 1.25% Beadlet, Roche Vitamins AG, Basel, Switzerland)
D: basal diet+1,000 IU/kg vitamin D3+20 μg/kg 25-hydroxy vitamin D3 (Hy. D® 1.25% Beadlet, Roche Vitamins AG, Basel, Switzerland).
as §1

[3] = group C: 30 μg/kg 25-hydroxy vitamin D3, 34 days
[4] = group C: basal diet+30 μg/kg 25-hydroxy vitamin D3, 34 days
[5] = group B: 1,200 IU/kg vitamin D3, 34 days
[6] = group B: basal diet+1,200 IU/kg vitamin D3, 34 days

## C=C1CC[C@H](O)C/C1=C/C=C1\CCC[C@]2(C)[C@@H]([C@H](C)CCCC(C)(C)O)CC[C@@H]12 [25-hydroxy vitamin D3]
[1]; Example 1, addition to diet, 34 days
  strength of the bones of the growing-finishing pig (in words): clearly improved
[1]; [3]
  Strength - metacarpals and metatarsals, relative to group A (100): (112)
  Strength - metacarpals, relative to group A (100): (123)
  Strength - metatarsals, relative to group A (100): (103)
[1]; group C: basal diet+30 μg/kg 25-hydroxy vitamin D3 (Hy.D 1.25% Beadlet), 34 days
  Strength - metacarpals: 520 ± 72^df Newton
[1]; [4]
  Strength - metatarsals: 545 ± 105 Newton
  Strength - metacarpals and metatarsals: 533 ± 88^ac Newton
[2]; group C: 40 μg/kg 25-hydroxy vitamin D3, 33 days, 1,000 IU/kg vitamin D3 group = 100
  Strength - femur, relative to group A (100): (100)
[2]; group C: basal diet+40 μg/kg 25-hydroxy vitamin D3 (Hy.D 1.25% Beadlet), 33 days
  Strength - femur: 803 ± 82^a Newton

## C=C1CC[C@H](O)C/C1=C/C=C1\CCC[C@]2(C)[C@@H]([C@H](C)CCCC(C)C)CC[C@@H]12 [vitamin D3]
[1]; [5]
  Strength - metacarpals and metatarsals, relative to group A (100): (107)
  Strength - metacarpals, relative to group A (100): (109)
  Strength - metatarsals, relative to group A (100): (105)
[1]; [6]
  Strength - metacarpals: 463 ± 48^ce Newton
  Strength - metatarsals: 553 ± 169 Newton
  Strength - metacarpals and metatarsals: 508 ± 113^ac Newton
[2]; group A: 1,000 IU/kg vitamin D3, 33 days, reference group = 100
  Strength - femur, relative to group A (100): (100)
[2]; group B: 2,000 IU/kg vitamin D3, 33 days, 1,000 IU/kg vitamin D3 group = 100
  Strength - femur, relative to group A (100): (109)
[2]; group B: basal diet+2,000 IU/kg vitamin D3, 33 days
  Strength - femur: 873 ± 123^ab Newton
